This test has as its system P388 leukemia ip, CD2F1 mice, survival T/C. Kind of test: NCI In Vivo Anticancer Drug Screen. Data for tumor model P388 Leukemia (intraperitoneal) in CD2F1 (CDF1) mice. To be noted: endpoint: median survival time, higher = longer survival. An outline of the steps:
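Mice carrying the transplanted tumor received test compound or vehicle. Survival was recorded in each group, and the value is the treated-group measurement divided by that of the vehicle-treated control group.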

Setting [1] is: dose: 50.0 mg/kg/injection, schedule: Q01DX005 (ip), vehicle: Klucel (hydroxypropylcellulose) (HPC).
Where [2] appears, read: dose: 50.0 mg/kg/injection, schedule: Q04DX003 (ip), vehicle: saline with Tween-80.
Setting [3] is: dose: 100.0 mg/kg/injection, schedule: Q04DX003 (ip), vehicle: saline with Tween-80.
The mark [4] stands for this setting: dose: 50.0 mg/kg/injection, schedule: Q01DX009 (ip), vehicle: saline with Tween-80.
[5] abbreviates: dose: 25.0 mg/kg/injection, schedule: Q01DX009 (ip), vehicle: saline.
[6] abbreviates: dose: 50.0 mg/kg/injection, schedule: Q01DX009 (ip), vehicle: Klucel (hydroxypropylcellulose) (HPC).
Setting [7] is: dose: 100.0 mg/kg/injection, schedule: Q01DX009 (ip), vehicle: Klucel (hydroxypropylcellulose) (HPC).
Setting [8] is: dose: 100.0 mg/kg/injection, schedule: Q01DX009 (ip), vehicle: saline.

Values joined by “and” are separate entries in the source; they are usually repeats but may differ in a detail not shown here. Equal values may be shown once. Toxic doses and inconclusive results are not listed.

As to `Cc1cc(O)c2c(c1O)C(=O)c1cccc(O)c1C2=O`, the T/C was 108 % of control (dose: 0.75 mg/kg/injection, schedule: Q01DX009 (ip), vehicle: Klucel (hydroxypropylcellulose) (HPC)); 115 % of control (dose: 1.5 mg/kg/injection, schedule: Q01DX009 (ip), vehicle: Klucel (hydroxypropylcellulose) (HPC)); 99 % of control (dose: 3.0 mg/kg/injection, schedule: Q01DX005 (ip), vehicle: Klucel (hydroxypropylcellulose) (HPC)); 90 % of control (dose: 3.0 mg/kg/injection, schedule: Q01DX009 (ip), vehicle: Klucel (hydroxypropylcellulose) (HPC)); 106 % of control (dose: 6.0 mg/kg/injection, schedule: Q01DX005 (ip), vehicle: Klucel (hydroxypropylcellulose) (HPC)); 114 % of control (dose: 6.0 mg/kg/injection, schedule: Q01DX009 (ip), vehicle: Klucel (hydroxypropylcellulose) (HPC)). The T/C reads like this: (dose: 12.0 mg/kg/injection, schedule: Q01DX005 (ip), vehicle: Klucel (hydroxypropylcellulose) (HPC)) 101 % of control; (dose: 12.0 mg/kg/injection, schedule: Q01DX009 (ip), vehicle: Klucel (hydroxypropylcellulose) (HPC)) 98 % of control; (dose: 12.5 mg/kg/injection, schedule: Q01DX005 (ip), vehicle: Klucel (hydroxypropylcellulose) (HPC)) 101 % of control; (dose: 24.0 mg/kg/injection, schedule: Q01DX005 (ip), vehicle: Klucel (hydroxypropylcellulose) (HPC)) 95 % of control; (dose: 25.0 mg/kg/injection, schedule: Q01DX005 (ip), vehicle: Klucel (hydroxypropylcellulose) (HPC)) 97 % of control; under setting [1], 90 % of control. The T/C was 109 % of control (dose: 100.0 mg/kg/injection, schedule: Q01DX001 (ip), vehicle: saline); 108 % of control (dose: 200.0 mg/kg/injection, schedule: Q01DX001 (ip), vehicle: saline); 100 % of control (dose: 400.0 mg/kg/injection, schedule: Q01DX001 (ip), vehicle: saline).
As to `O=C(NC1CCCCC1)C(=NC1CCCCC1)c1cc(Cl)c(Cl)c(Cl)c1Cl`, the T/C by setting is: under setting [2], 98 % of control; under setting [3], 98 % of control; (dose: 200.0 mg/kg/injection, schedule: Q04DX003 (ip), vehicle: saline with Tween-80) 87 % of control.
`COC(=O)N1C=CC2ON=C(S(=O)(=O)c3ccccc3)C2C1` (centres undefined): the T/C is, setting by setting: (dose: 60.0 mg/kg/injection, schedule: Q01DX005 (ip), vehicle: saline with Tween-80) 108 % of control; (dose: 120.0 mg/kg/injection, schedule: Q01DX005 (ip), vehicle: saline with Tween-80) 95 % of control; (dose: 240.0 mg/kg/injection, schedule: Q01DX005 (ip), vehicle: saline with Tween-80) 98 % of control.
As for `CN1CCC(CN2c3ccccc3Sc3ccccc32)CC1`, the T/C is 95 % of control (dose: 25.0 mg/kg/injection, schedule: Q01DX009 (ip), vehicle: saline with Tween-80); 100 % of control (dose: 25.0 mg/kg/injection, schedule: Q04DX003 (ip), vehicle: saline with Tween-80); 100 % of control under setting [4]; 109 % of control under setting [2]; 95 % of control (dose: 100.0 mg/kg/injection, schedule: Q01DX009 (ip), vehicle: saline with Tween-80); 109 % of control under setting [3].
Consider `CCCCCNC(=O)c1csc(-c2csc(CCNC(C)=O)n2)n1`, for which the T/C is, setting by setting: (dose: 12.5 mg/kg/injection, schedule: Q01DX009 (ip), vehicle: distilled water + Tween-80) 100 % of control; (dose: 25.0 mg/kg/injection, schedule: Q01DX009 (ip), vehicle: distilled water + Tween-80) 103 % of control; (dose: 50.0 mg/kg/injection, schedule: Q01DX009 (ip), vehicle: distilled water + Tween-80) 92 % of control; (dose: 100.0 mg/kg/injection, schedule: Q01DX009 (ip), vehicle: distilled water + Tween-80) 91 % of control.
Take `COC(=O)c1ccc(C)c(N(CCO)CCO)c1`: the T/C was 104 % of control (dose: 50.0 mg/kg/injection, schedule: Q01DX005 (ip), vehicle: saline with Tween-80); 104 % of control (dose: 100.0 mg/kg/injection, schedule: Q01DX005 (ip), vehicle: saline with Tween-80); 104 % of control (dose: 200.0 mg/kg/injection, schedule: Q01DX005 (ip), vehicle: saline with Tween-80).
In the case of `CC(=O)OCC1OC(n2cnc3c(N)ncnc32)C2OC(C)(C)OC12` (centres undefined), the T/C was 101 % of control under setting [1] and 97 % of control (dose: 100.0 mg/kg/injection, schedule: Q01DX005 (ip), vehicle: Klucel (hydroxypropylcellulose) (HPC)).
Consider `Clc1ccccc1Nc1c2ccccc2nc2ccccc12`, for which the T/C (dose: 100.0 mg/kg/injection, schedule: Q04DX003 (ip), vehicle: saline) was 100 % of control; the T/C (dose: 132.0 mg/kg/injection, schedule: Q04DX003 (ip), vehicle: suspension in saline) was 108 % of control; the T/C (dose: 200.0 mg/kg/injection, schedule: Q04DX003 (ip), vehicle: suspension in saline) is 110 % of control; the T/C (dose: 300.0 mg/kg/injection, schedule: Q04DX003 (ip), vehicle: suspension in saline) was 115 % of control; the T/C (dose: 400.0 mg/kg/injection, schedule: Q04DX003 (ip), vehicle: saline) is 104 % of control.
On to `Nc1nc(=S)c2ncn(C3CC(O)C(CO)O3)c2[nH]1` (centres undefined), for which the T/C reads like this: (dose: 10.0 mg/kg/injection, schedule: Q01DX009 (ip), vehicle: Klucel (hydroxypropylcellulose) (HPC)) 118 % of control; (dose: 12.5 mg/kg/injection, schedule: Q01DX005 (ip), vehicle: saline) 118 % of control; (dose: 12.5 mg/kg/injection, schedule: Q01DX005 (iv), vehicle: saline) 101 % of control; (dose: 12.5 mg/kg/injection, schedule: Q01DX009 (ip), vehicle: Klucel (hydroxypropylcellulose) (HPC)) 122 % of control; (dose: 20.0 mg/kg/injection, schedule: Q01DX009 (ip), vehicle: Klucel (hydroxypropylcellulose) (HPC)) 95 % of control; (dose: 25.0 mg/kg/injection, schedule: Q01DX005 (ip), vehicle: saline) 109 % of control. For the same compound, the T/C (dose: 25.0 mg/kg/injection, schedule: Q01DX005 (iv), vehicle: saline) was 102 % of control; the T/C (dose: 25.0 mg/kg/injection, schedule: Q01DX009 (ip), vehicle: saline sonified) was 168 % of control; the T/C under setting [5] is 117 % of control; the T/C (dose: 50.0 mg/kg/injection, schedule: Q01DX005 (ip), vehicle: saline) was 109 % of control; the T/C (dose: 50.0 mg/kg/injection, schedule: Q01DX005 (iv), vehicle: saline) is 102 % of control and 106 % of control; the T/C under setting [6] was 118 % of control. Further, the T/C under setting [4] is 162 % of control; the T/C (dose: 100.0 mg/kg/injection, schedule: Q01DX005 (iv), vehicle: saline) was 103 % of control and 108 % of control; the T/C under setting [7] was 113 % of control; the T/C under setting [8] was 169 % of control; the T/C (dose: 200.0 mg/kg/injection, schedule: Q01DX005 (ip), vehicle: saline) is 153 % of control; the T/C (dose: 200.0 mg/kg/injection, schedule: Q01DX005 (iv), vehicle: saline) was 122 % of control. Further, where the note is “dose: 200.0 mg/kg/injection, schedule: Q01DX009 (ip), vehicle: saline”, the T/C is 114 % of control.
Take `O=C(O)c1ccc(OCCOc2ccccc2)cc1`: the T/C is 100 % of control (dose: 50.0 mg/kg/injection, schedule: Q01DX001 (ip), vehicle: saline with Tween-80); 100 % of control (dose: 100.0 mg/kg/injection, schedule: Q01DX001 (ip), vehicle: saline with Tween-80); 90 % of control (dose: 200.0 mg/kg/injection, schedule: Q01DX001 (ip), vehicle: saline with Tween-80).
Regarding `N#Cc1c(Cl)nsc1-c1ccc([N+](=O)[O-])cc1`, the T/C was 119 % of control under setting [6]; 92 % of control under setting [7]; 103 % of control (dose: 200.0 mg/kg/injection, schedule: Q01DX009 (ip), vehicle: Klucel (hydroxypropylcellulose) (HPC)).
Regarding `CCCCCCCCCCCCSCN(CC)CC`, the T/C is, setting by setting: under setting [5], 89 % of control; (dose: 50.0 mg/kg/injection, schedule: Q01DX009 (ip), vehicle: saline) 99 % of control and 111 % of control; under setting [8], 101 % of control and 103 % of control.

The values are drawn from PubChem BioAssay AID330 (DTP/NCI, 2004).
